In PubChem BioAssay (NCI):
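Growth conditions: 96-well plates. Treatment: test compound, 48 hours, 5 concentrations. Analysis: linear interpolation between bracketing concentrations; unreached endpoints set to highest concentration. GI50 marks 50% less growth. Definition used: TGI = concentration required for complete inhibition of growth.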

Columns and labels:
Test in all cases: DTP human tumour cell line panel, 48 h
HCT-116 colon = system: HCT-116 colon
M14 melanoma = system: M14 melanoma
MDA-MB-435 = system: MDA-MB-435
MALME-3M melanoma = system: MALME-3M melanoma
KM12 colon = system: KM12 colon
HOP-92 NSCLC = system: HOP-92 NSCLC
SK-OV-3 ovarian = system: SK-OV-3 ovarian
SF-539 CNS = system: SF-539 CNS
HOP-62 NSCLC = system: HOP-62 NSCLC
HL-60(TB) leukemia = system: HL-60(TB) leukemia
NCI-H226 lung = system: NCI-H226 lung
EKVX NSCLC = system: EKVX NSCLC
MDA-MB-468 breast = system: MDA-MB-468 breast
TK-10 renal = system: TK-10 renal
U251 CNS = system: U251 CNS
SK-MEL-2 melanoma = system: SK-MEL-2 melanoma
SW-620 colon = system: SW-620 colon
SNB-75 CNS = system: SNB-75 CNS
T-47D breast = system: T-47D breast
COLO 205 colon = system: COLO 205 colon
ACHN renal = system: ACHN renal
786-0 renal = system: 786-0 renal
A498 renal = system: A498 renal
RPMI-8226 leukemia = system: RPMI-8226 leukemia
SR leukemia = system: SR leukemia
SK-MEL-5 melanoma = system: SK-MEL-5 melanoma
NCI/ADR-RES ovarian = system: NCI/ADR-RES ovarian
SF-295 CNS = system: SF-295 CNS
HCC-2998 colon = system: HCC-2998 colon
UACC-62 melanoma = system: UACC-62 melanoma
K-562 leukemia = system: K-562 leukemia
OVCAR-8 ovarian = system: OVCAR-8 ovarian
IGROV1 ovarian = system: IGROV1 ovarian
SNB-19 CNS = system: SNB-19 CNS
NCI-H460 lung = system: NCI-H460 lung
A549 NSCLC = system: A549 NSCLC
CAKI-1 renal = system: CAKI-1 renal
PC-3 prostate = system: PC-3 prostate
UACC-257 melanoma = system: UACC-257 melanoma
RXF 393 renal = system: RXF 393 renal
OVCAR-3 ovarian = system: OVCAR-3 ovarian
MCF7 breast = system: MCF7 breast
LOX IMVI melanoma = system: LOX IMVI melanoma
OVCAR-5 ovarian = system: OVCAR-5 ovarian
MDA-MB-231 breast = system: MDA-MB-231 breast
SF-268 CNS = system: SF-268 CNS
OVCAR-4 ovarian = system: OVCAR-4 ovarian
HCT-15 colon = system: HCT-15 colon
HS 578T breast = system: HS 578T breast
MOLT-4 leukemia = system: MOLT-4 leukemia
UO-31 renal = system: UO-31 renal
DU-145 prostate = system: DU-145 prostate
HT29 colon = system: HT29 colon
BT-549 breast = system: BT-549 breast
CCRF-CEM leukemia = system: CCRF-CEM leukemia
NCI-H23 lung = system: NCI-H23 lung
SN12C renal = system: SN12C renal
NCI-H522 lung = system: NCI-H522 lung
SK-MEL-28 melanoma = system: SK-MEL-28 melanoma

SMILES: Cc1ccc(-c2ccc(SCC(=O)Nc3ccc(S(N)(=O)=O)cc3Br)nn2)cc1
- GI50 (HCT-116 colon): 3.67 µM
- TGI (HCT-116 colon): 17.2 µM
- GI50 (M14 melanoma): 30.5 µM
- TGI (M14 melanoma): > 100 µM
- GI50 (MDA-MB-435): 25.4 µM
- TGI (MDA-MB-435): > 100 µM
- GI50 (MALME-3M melanoma): 13.7 µM
- TGI (MALME-3M melanoma): 28.8 µM
- GI50 (KM12 colon): 28.3 µM
- TGI (KM12 colon): > 100 µM
- GI50 (HOP-92 NSCLC): 2.97 µM
- TGI (HOP-92 NSCLC): 13.5 µM
- GI50 (SK-OV-3 ovarian): 15.1 µM
- TGI (SK-OV-3 ovarian): 29.3 µM
- GI50 (SF-539 CNS): 10.4 µM
- TGI (SF-539 CNS): 22.2 µM
- GI50 (HOP-62 NSCLC): 6.99 µM
- TGI (HOP-62 NSCLC): 24.2 µM
- GI50 (HL-60(TB) leukemia): > 100 µM
- TGI (HL-60(TB) leukemia): > 100 µM
- GI50 (NCI-H226 lung): 7.32 µM
- TGI (NCI-H226 lung): 24.7 µM
- GI50 (EKVX NSCLC): 15.5 µM
- TGI (EKVX NSCLC): 31.3 µM
- GI50 (MDA-MB-468 breast): 15.3 µM
- TGI (MDA-MB-468 breast): 36.4 µM
- GI50 (TK-10 renal): 17.6 µM
- TGI (TK-10 renal): 39.5 µM
- GI50 (U251 CNS): 6.17 µM
- TGI (U251 CNS): 24 µM
- GI50 (SK-MEL-2 melanoma): 16.4 µM
- TGI (SK-MEL-2 melanoma): 35.3 µM
- GI50 (SW-620 colon): 27.2 µM
- TGI (SW-620 colon): > 100 µM
- GI50 (SNB-75 CNS): 13.6 µM
- TGI (SNB-75 CNS): 37.1 µM
- GI50 (T-47D breast): 10.6 µM
- TGI (T-47D breast): 34.3 µM
- GI50 (COLO 205 colon): 17.4 µM
- TGI (COLO 205 colon): 41.2 µM
- GI50 (ACHN renal): 12 µM
- TGI (ACHN renal): 24.4 µM
- GI50 (786-0 renal): 16.4 µM
- TGI (786-0 renal): 47 µM
- GI50 (A498 renal): 19.3 µM
- TGI (A498 renal): 34.4 µM
- GI50 (RPMI-8226 leukemia): > 100 µM
- TGI (RPMI-8226 leukemia): > 100 µM
- GI50 (SR leukemia): 60.4 µM
- TGI (SR leukemia): > 100 µM
- GI50 (SK-MEL-5 melanoma): 13.1 µM
- TGI (SK-MEL-5 melanoma): 26.5 µM
- GI50 (NCI/ADR-RES ovarian): 9.62 µM
- TGI (NCI/ADR-RES ovarian): > 100 µM
- GI50 (SF-295 CNS): 10.5 µM
- TGI (SF-295 CNS): 22.3 µM
- GI50 (HCC-2998 colon): 11.5 µM
- TGI (HCC-2998 colon): 28.1 µM
- GI50 (UACC-62 melanoma): 13.2 µM
- TGI (UACC-62 melanoma): 26.2 µM
- GI50 (K-562 leukemia): 36.3 µM
- TGI (K-562 leukemia): > 100 µM
- GI50 (OVCAR-8 ovarian): 13.3 µM
- TGI (OVCAR-8 ovarian): 29.6 µM
- GI50 (IGROV1 ovarian): 15.9 µM
- TGI (IGROV1 ovarian): 31.3 µM
- GI50 (SNB-19 CNS): 11.3 µM
- TGI (SNB-19 CNS): 23.3 µM
- GI50 (NCI-H460 lung): 10.3 µM
- TGI (NCI-H460 lung): 29 µM
- GI50 (A549 NSCLC): 15 µM
- TGI (A549 NSCLC): 30.9 µM
- GI50 (CAKI-1 renal): 12.3 µM
- TGI (CAKI-1 renal): 28.5 µM
- GI50 (PC-3 prostate): 5.64 µM
- TGI (PC-3 prostate): 22.5 µM
- GI50 (UACC-257 melanoma): 22.7 µM
- TGI (UACC-257 melanoma): 64.9 µM
- GI50 (RXF 393 renal): 3.96 µM
- TGI (RXF 393 renal): 20.5 µM
- GI50 (OVCAR-3 ovarian): 16.9 µM
- TGI (OVCAR-3 ovarian): 32.4 µM
- GI50 (MCF7 breast): 15.4 µM
- TGI (MCF7 breast): 37.1 µM
- GI50 (LOX IMVI melanoma): 10.4 µM
- TGI (LOX IMVI melanoma): 25.5 µM
- GI50 (OVCAR-5 ovarian): 15 µM
- TGI (OVCAR-5 ovarian): 32.4 µM
- GI50 (MDA-MB-231 breast): 4.19 µM
- TGI (MDA-MB-231 breast): 15.5 µM
- GI50 (SF-268 CNS): 18.4 µM
- TGI (SF-268 CNS): 48.9 µM
- GI50 (OVCAR-4 ovarian): 14.1 µM
- TGI (OVCAR-4 ovarian): 35 µM
- GI50 (HCT-15 colon): 11.3 µM
- TGI (HCT-15 colon): 23.4 µM
- GI50 (HS 578T breast): 13.1 µM
- TGI (HS 578T breast): 45.3 µM
- GI50 (MOLT-4 leukemia): > 100 µM
- TGI (MOLT-4 leukemia): > 100 µM
- GI50 (UO-31 renal): 14.7 µM
- TGI (UO-31 renal): 28.6 µM
- GI50 (DU-145 prostate): 13.3 µM
- TGI (DU-145 prostate): 32.1 µM
- GI50 (HT29 colon): 7.6 µM
- TGI (HT29 colon): 68.8 µM
- GI50 (BT-549 breast): 15.7 µM
- TGI (BT-549 breast): 44.2 µM
- GI50 (CCRF-CEM leukemia): > 100 µM
- TGI (CCRF-CEM leukemia): > 100 µM
- GI50 (NCI-H23 lung): 9.73 µM
- TGI (NCI-H23 lung): 21.4 µM
- GI50 (SN12C renal): 23.8 µM
- TGI (SN12C renal): 60 µM
- GI50 (NCI-H522 lung): 10.9 µM
- TGI (NCI-H522 lung): 25.4 µM
- GI50 (SK-MEL-28 melanoma): 13.4 µM
- TGI (SK-MEL-28 melanoma): 27 µM
